Data: patent US20240239854A1, “ANTIMICROBIAL PEPTIDES AND MODIFICATIONS THEREOF” (Donald Danforth Plant Science Center, priority 2022, published 2024)
No end group written: not given here.

B1: PD97.1.1: Rubus chingii wild-type defensin SEQ ID NO: 608 with N-terminal alanine, expressed in Pichia pastoris (protein, listed as Rubus chingii)
chain: GACPLVSKRSKTWSGFCGSSNNCNKQCRSWESAQHGACHNTYKTVLGVKVISGRACFCYFCKKHT
modifications: N-terminal alanine

Columns and labels:
Assay type in all cases: cell-based
[1] = system: Fusarium graminearum PH-1; conditions: for F. graminearum PH-1 MIC Day1: MIC Day 1, 96-well plate, resazurin cell viability
[2] = system: Zymoseptoria tritici IPO323
Botrytis cinerea T4 = system: Botrytis cinerea T4

Molecule	F. graminearum PH-1 MIC Day1 [1] [µM]	Z. tritici IPO323 MIC Day 1 [2] [µM]	Z. tritici IPO323 MIC Day 7 [2] [µM]	Z. tritici IPO323 MIC Day 14 [2] [µM]	B. cinerea T4 MIC Day1 (Botrytis cinerea T4) [µM]	MIC, in-vitro antifungal activity against F. graminearum ([1]; F. graminearum PH-1, 48 hours) [µM]	MIC, in-vitro antifungal activity against B. cinerea (Botrytis cinerea T4; 48 hours) [µM]	MIC against Z. tritici on day 1 [2] [µM]	MIC against Z. tritici on day 7 [2] [µM]	MIC against Z. tritici on day 14 [2] [µM]
PD102.1.1: Cajanus cajan wild-type defensin SEQ ID NO: 628 with N-terminal alanine, expressed in Pichia pastoris (AVCSKPSTYFFGPCVRRSTCRRACSHENYPDGKCSRFLGKCICYKPCTT; cysteine pairing not given here; also: N-terminal alanine added, unclear whether it is the first A of the chain)	1.5	1	1.5	2.5	1.25	–	–	–	–	–
PD103.1.1: Eucalyptus grandis wild-type defensin SEQ ID NO: 633 with N-terminal alanine, expressed in Pichia pastoris (ATCRKPSMYFSGACFSRTNCQKACNREDWPNGKCLVGFKCFCQRPC; cysteine pairing not given here; also: N-terminal alanine added, unclear whether it is the first A of the chain; listed as Eucalyptus grandis)	2.5	1.25	1.25	3	1.75	–	–	–	–	–
PD104.1.1: Eucalyptus grandis wild-type defensin SEQ ID NO: 637 with N-terminal alanine, expressed in Pichia pastoris (AICKKPSKFFKGACGRDADCEKACDQENWPGGVCVPFLRCECQRSC; cysteine pairing not given here; also: N-terminal alanine added, unclear whether it is the first A of the chain; listed as Eucalyptus grandis)	>12	>12	>12	>12	>12	–	–	–	–	–
PD106.1.1: Eucalyptus grandis wild-type defensin SEQ ID NO: 645 with N-terminal alanine, expressed in Pichia pastoris (ANCAKPSKFYRGPCFNSISVKPCTQRCSQENWPIGVCTKDLRCECQRPC; cysteine pairing not given here; also: N-terminal alanine added, unclear whether it is the first A of the chain; listed as Eucalyptus grandis)	0.75	0.375	1.5	2.5	1	0.75	1	–	–	–
PD108.1.1: Fragaria x anannasa wild-type defensin SEQ ID NO: 653 with N-terminal alanine, expressed in Pichia pastoris (KTCESPSAKFEGPCIMGSNCALTCQKEGHDGGFCRDFWLPKCFCTKPC; N-terminal alanine added; Fragaria X ananassa)	>12	>12	>12	>12	>12	–	–	–	–	–
PD113.1.1: Gossypium hirsutum wild-type defensin SEQ ID NO: 674 with N-terminal alanine, expressed in Pichia pastoris (GPTIVGGRKCKSPSKKFNGMCMNHVNCATVCQTESHEDGKCEGFYRRCICIKPCF; N-terminal alanine added; listed as Gossypium hirsutum)	6	4	12	>12	6	–	–	–	–	–
PD115.1.1: Lupinus albus wild-type defensin SEQ ID NO: 683 with N-terminal alanine, expressed in Pichia pastoris (NNCKYESNKFHGVCLSDTNCESVCQTEGFPFGKCDGVLPRTCVCKKPC; N-terminal alanine added; listed as Lupinus albus)	>12	>12	>12	>12	>12	–	–	–	–	–
PD117.1.1: Manihot esculenta wild-type defensin SEQ ID NO: 692 with N-terminal alanine, expressed in Pichia pastoris (RICVKPEPLAHCTETICTQFCIRKYGPPPGTVGKCNLPPGFCTCYHNC; N-terminal alanine added; listed as Manihot esculenta)	>12	>12	>12	>12	>12	–	–	–	–	–
PD118.1.1: Malus domestica wild-type defensin SEQ ID NO: 697 with N-terminal alanine, expressed in Pichia pastoris (KICEFPSTLFKGLCFSSNNCKHTCRKEQFTRGKCSLLTRTCMCTKKC; N-terminal alanine added; listed as Malus domestica)	1.5	1.5	2	3	1.5	–	–	–	–	–
PD119.1.1: Setaria italica wild-type defensin SEQ ID NO: 702 with N-terminal alanine, expressed in Pichia pastoris (RHCLSQSHTFKGLCFSSENCASVCKSEKFPGGQCQMHGASRKCFCKVVC; N-terminal alanine added; listed as Setaria italica)	1.5	2.5	6	12	4.5	–	–	–	–	–
PD121.1.1: Setaria italica wild-type defensin SEQ ID NO: 711 with N-terminal alanine, expressed in Pichia pastoris (RHCLSQSHHFKGLCLSSSNCANVCRVERFPDGECQTTAGTRKCFCKRIC; N-terminal alanine added; listed as Setaria italica)	1.5	1	4	5	2	–	–	–	–	–
PD123.1.1: Striga asiatica wild-type defensin SEQ ID NO: 719 with N-terminal alanine, expressed in Pichia pastoris (RKCESKSQQFKGLCFIKANCAAVCRTEGFHSGHCRGFRRRCYCTKHC; N-terminal alanine added; listed as Striga asiatica)	6	3	5	10	6	–	–	–	–	–
PD124.1.1: Rubus argutus wild-type defensin SEQ ID NO: 723 with N-terminal alanine, expressed in Pichia pastoris (RICEVPSKTFIGLCFKDTNCIVRCRSEGYGYGKCSHFRRRCRCFKPCP; N-terminal alanine added; listed as Rubus argutus)	2	0.75	3.25	4	0.75	–	–	–	–	–
PD125.1.1: wild-type defensin-like protein SEQ ID NO: 728 with N-terminal alanine, expressed in Pichia pastoris (VICPLESKRSKTWSGVCAQSKNCDKQCKTWERAKHGACHATYGKVLGVKACMHAGNK; N-terminal alanine added; listed as Prunus armeniaca)	8	3	7	9	10	–	–	–	–	–
PD126.1.1: wild-type defensin-like protein SEQ ID NO: 730 with N-terminal alanine, expressed in Pichia pastoris (KLCERRSKTWTGWCAKTSHCNKQCKDWERVEHGACHGEFLEKPVSAISNAHCKISF; N-terminal alanine added; listed as Prunus armeniaca)	>12	>12	>12	>12	>12	–	–	–	–	–
PD128.1.1: wild-type defensin-like protein SEQ ID NO: 734 with N-terminal alanine, expressed in Pichia pastoris (RVCLRRSKTWTGFCGNTRGFDSQCKRWECALHGACHC; N-terminal alanine added; listed as Lepidium sativum)	>12	3	7	8	3	–	–	–	–	–
B1	1.5	0.75	1.5	1.5	1.25	–	–	0.75	1.5	1.5
